Values after ≈ are worked out from the molar mass of the structure shown. Like-named read-outs stand apart in the source and are kept apart here.

In data set [1] the test system is Aspergillus fumigatus. Put plainly: MIC/MFC broth dilution (CLSI), clinical isolates. Format: cell-based. Particulars: A. fumigatus. As to the method: (§1) Isolates of Aspergillus fumigatus, Aspergillus flavus, Aspergillus terreus Aspergillus niger, Rhizopus oryzae, Candida albicans and Candida krusei were isolated from patients in Israeli hospitals and used for in vitro efficacy studies.
(§2) Efficacy was evaluated by measuring minimum inhibitory concentration (MIC) and minimum fungicidal concentration (MFC) values for fungal isolates. Testing of isolates was performed according to the Clinical & Laboratory Standards Institute (CLSI) method. (CLSI. 2008. M27-A3 Reference method for broth dilution antifungal susceptibility testing of yeasts; Approved Standard—3rd edition. Clinical and Laboratory Standards Institute, Wayne). RPMI MOPS media was used throughout the experiment as growth and dilution media. Spores and yeast cells were harvested in 0.05% Tween from 24-48 h and cultures were grown in rich yeast extract-agar-glucose (YAG) medium (composed of: 0.5% w/v yeast extract, 1% w/v glucose, 10 millimolar (mM) MgCl2, supplemented with 0.1% v/v trace elements solution, and 0.2% v/v vitamin mix). The spores and the yeast cells were counted and diluted to a final concentration of 2.5×10^4 per ml. A stock solution of 5 mg/ml was prepared in dimethylsulfoxide for free AMB. Compounds 4 and 6 were prepared in sterile saline. Double dilutions of each drug were performed in 100 μL volume of RPMI-MOPS in 96 well plates beginning with a final concentration of 32 micrograms (μg)/well of each drug to 0.06 μg/well. 2500 spores or yeast cells were added to each well. Results were recorded 48 h post incubation at 37° C. […] The MFC was defined as the lowest drug concentration that yielded three or fewer colonies (i.e. 99% of the inoculum was killed).
Background: Broth dilution looks for growth in wells or tubes with falling amounts of substance.

Data set [2] is described as follows: Solubility in double-distilled water. Format: physicochemical. The protocol:
Physical characteristics of AMB derivatives and of AMB were tested, including solubility.

Data set [3] in a line: Solubility in 0.9% saline after vortex, sonication and centrifuge. Format: physicochemical.
The subject of data set [4] is Aspergillus flavus. Kind of data set: MIC/MFC broth dilution (CLSI), clinical isolates. Format: cell-based. Particulars: A. Flavus, 3 isolates, 48 h at 37° C. The protocol:
as §1, §2

Data set [5] concerns Rhizopus oryzae. Put plainly: MIC/MFC broth dilution (CLSI), clinical isolates. Format: cell-based. Particulars: 1 isolate, 48 h at 37° C. The protocol: as §1, §2
For data set [6], the system named is Candida albicans. Put plainly: MIC/MFC broth dilution (CLSI), clinical isolates. Format: cell-based. Particulars: C. albicans, 2 isolates, 48 h at 37° C. As to the method: as §1, §2
The subject of data set [7] is Aspergillus niger. Kind of data set: MIC/MFC broth dilution (CLSI), clinical isolates. Format: cell-based. Particulars: A. niger, 3 isolates, 48 h at 37° C. As to the method:
as §1, §2

In data set [8] the test system is Aspergillus terreus. Put plainly: MIC/MFC broth dilution (CLSI), clinical isolates. The conditions noted are these: listed as printed C. terreus, 1 isolate, 48 h at 37° C. Format: cell-based. As to the method: as §1, §2
Data set [9] deals with Candida krusei. Kind of data set: MIC/MFC broth dilution (CLSI), clinical isolates. Format: cell-based. Particulars: C. krusei, 3 isolates, 48 h at 37° C. As to the method: as §1, §2
Data set [10] deals with human erythrocytes. Put plainly: In-vitro toxicity (hemolysis) study. Format: cell-based. Particulars: 6 μg/ml. As to the method: Reference is made to FIG. 4B. Fresh human erythrocytes were diluted 1:100 in PBS, and incubated in an Eppendorf tube while rotating slowly in the presence of 6 μg/ml of each of compound 4 and compound 6. Amphotericin B was used as positive control. Sterile double distilled water served as a control for 100% hemolysis. After 1, 3, 5 and 21 h, 20 μl of each test tube were removed and diluted in 180 μl PBS. Samples were centrifuged for 10 minutes at 1200 RPM and the optical density of the supernatant was measured at 425 nm.

The nature of data set [11]: Stability (hydrolysis) in phosphate buffered saline. Format: physicochemical.
For data set [12], the system named is mouse embryonic fibroblasts (MEFs). Put plainly: MTT viability assay in mouse embryonic fibroblasts. Format: cell-based. The protocol: Reference is made to FIG. 4C. Mouse embryonic fibroblasts were used in this example. 1×10^4 mouse embryonic fibroblasts (MEFs) per well were seeded in 96-well plates and incubated at 37° C. After 24 h the media was replaced with 100 μl culture medium containing serial dilutions of AMB, compounds 4 or 6, or left untreated. After 24 h, the media was replaced by fresh media (100 μl per well) containing 1 mg/ml MTT (3-(4,5-Dimethylthiazol-2-yl)-2,5-Diphenyltetrazolium Bromide, ((Biological Industries, Israel)) reagent and the cells were incubated for an additional 3 h at 37° C. MTT-formazan crystals were dissolved by the addition of 100 μl per well of extraction solution (20% SDS, 50% N,N-dimethyl formamide (DMF), pH=4.7) and incubation for 16 h at 37° C. Absorbance at 570 nm was recorded on a Biotek Synergy HT plate reader.
The results were expressed as the percentage of living cells relative to the untreated control and are depicted in FIG. 4C. The inhibition concentration (IC50) value is the concentration of the compound which inhibited cell growth by 50%.
On the technique in general: Tetrazolium dyes change colour on reduction, which living cells bring about.

Data set [13] deals with ICR mice. Put plainly: In vivo toxicity, intravenous injection. Particulars: female ICR mice, intravenous. As to the method:
In-vivo toxicity was determined in mice using 6 week old female ICR mice (n=6). Different concentrations of each formulation were injected intravenously through the tail vein, 0.2 ml per mouse, until death was observed. PAD-AMB conjugates were prepared in sterile saline solution and were filtered through 0.45-micrometer pore-size cellulose acetate sterile filters prior to injection.

In data set [14] the test system is C. albicans (CBS562). Kind of data set: MIC of compound 6, AMB and FMOC-6. Format: cell-based, Candida albicans. The protocol: as §2
(§3) In addition, the amine protected equivalent of compound 6 in which the amine of compound 6 was protected with an FMOC group was tested (designated FMOC-6) to determine MIC versus AMB and versus compound 6 against A. fumigatus (Af 293) and C. albicans (CBS562).

Data set [15] has as its system A. fumigatus (Af 293). Put plainly: MIC of compound 6, AMB and FMOC-6. Format: cell-based, Aspergillus fumigatus. As to the method:
as §2, §3

As a reminder, the MIC is the lowest concentration found to suppress growth. For orientation: Solubility means how much of the substance goes into solution per volume. A higher Solubility goes with much dissolved substance. In turn, `CC1C=CC=CC=CC=CC=CC=CC=CC(OC2OC(C)C(O)C(NC(=O)CCOCCOCCOCCOCCN)C2O)CC2OC(O)(CC(O)CC(O)C(O)CCC(O)CC(O)CC(=O)OC(C)C(C)C1O)CC(O)C2C(=O)O` (centres unmarked) [AMB-PEG4-amine] displayed an MIC in data set [1] (strain not stated) of 2 to 3 µg/mL. Moreover, the Solubility in data set [2] (double-distilled water) was found to be 300 µg/mL (≈ 256 µM).
Turning to `COC(=O)C1C(O)CC2(O)CC(O)CC(O)C(O)CCC(O)CC(O)CC(=O)OC(C)C(C)C(O)C(C)C=CC=CC=CC=CC=CC=CC=CC(OC3OC(C)C(O)C(NC(=O)CCOCCOCCOCCOCCN)C3O)CC1O2` (centres unmarked) [AME-PEG4-amine], in data set [2], the Solubility result was “Insoluble”.
Regarding `COC(=O)[C@H]1[C@@H]2C[C@@H](O[C@@H]3O[C@H](C)[C@@H](O)[C@H](N)[C@@H]3O)/C=C/C=C/C=C/C=C/C=C/C=C/C=C/[C@H](C)[C@@H](O)[C@@H](C)[C@H](C)OC(=O)C[C@H](O)C[C@H](O)CC[C@@H](O)[C@H](O)C[C@H](O)C[C@](O)(C[C@@H]1O)O2` [Amphotericin B methyl ester, reference compound], in data set [2], the Solubility was under 1 µg/mL.
As to `C[C@@H]1[C@H](O)[C@@H](C)/C=C/C=C/C=C/C=C/C=C/C=C/C=C/[C@H](O[C@@H]2O[C@H](C)[C@@H](O)[C@H](NC(=O)CCOCCOCCOCCOCCOCCOCCOCCOCCN)[C@@H]2O)C[C@@H]2O[C@](O)(C[C@@H](O)C[C@@H](O)[C@H](O)CC[C@@H](O)C[C@@H](O)CC(=O)O[C@H]1C)C[C@H](O)[C@H]2C(=O)O` [Compound 4, amphotericin B amide-PEG(8)-amine], in [3], the “increased solubility relative to corresponding non-PEG-conjugated AMB compounds” value is on record as “greater than 5500 fold”. Also, the MFC is 4 to 8 µg/mL in data set [4]; 8 µg/mL (≈ 5.94 µM) in [5]; 4 to 16 µg/mL in data set [1] (4 isolates, 48 h at 37° C.); 4 µg/mL (≈ 2.97 µM) in data set [6]; 1 to 4 µg/mL in data set [7]; 32 µg/mL (≈ 23.7 µM) in [8]. The compound also registered an MFC in [9] of 8 µg/mL (≈ 5.94 µM). The MIC in data set [4] was 4 to 8 µg/mL; in [5], 8 µg/mL (≈ 5.94 µM); in [1] (4 isolates, 48 h at 37° C.), 4 to 16 µg/mL; in [6] it was 1 to 2 µg/mL; in data set [7], 1 to 4 µg/mL; in [8], 32 µg/mL (≈ 23.7 µM). The compound further gave a minimal inhibitory concentration (MIC) in data set [9] of 4 to 8 µg/mL. Moreover, the “hemolytic activity” value in data set [10] (after 3 h of agitation) was “small hemolytic activity”. In data set [10] (assay conditions of FIG. 4B), the “toxicity to erythrocytes” value is on record as “less toxic (about four times less)”. In addition, the “hydrolysis after 4 hours” value in data set [11] (4 hours) is given as “no hydrolysis could be observed”. In addition, in data set [11] (24 hours), the “level of hydrolysis after 24 hours” value came to 0.51%. Moreover, the “IC50 (concentration which inhibited cell growth by 50%)” value in data set [12] (24 h exposure, MTT) worked out at 280 µg/mL. Further, in data set [12] (from IC50), the “times less toxic than AMB” value worked out at 40 times. In addition, in data set [2] (double-distilled water), the Solubility worked out at 5500 µg/mL (≈ 4080 µM). The “mouse LD50 fold higher than AMB” value in data set [13] is listed as “at least 20 fold”. For the same compound, in [13], the “signs of toxicity at the highest injectable doses” value is “did not show any signs of toxicity”. The LD50 result in [13] (tail vein) is “not reached”. Besides, in data set [13] (tail vein), the “Maximum Dose” value turned out to be 22 mg/kg.
For the compound `COC(=O)C1C(O)CC2(O)CC(O)CC(O)C(O)CCC(O)CC(O)CC(=O)OC(C)C(C)C(O)C(C)C=CC=CC=CC=CC=CC=CC=CC(OC3OC(C)C(O)C(NC(=O)CCOCCOCCOCCOCCOCCOCCOCCOCCNC(=O)OCC4c5ccccc5-c5ccccc54)C3O)CC1O2` (centres unmarked) [FMOC-6], the minimal inhibitory concentration (MIC) in data set [14] and in data set [15] was over 32 µg/mL in each case.

(Values after patent US9750817B2, “Amphotericin B derivatives” (priority 2015, dated 2017).)
